Data as given in patent publication US12564555B2, “Continuous processes for manufacturing impregnated porous carriers and for manufacturing pharmaceuticals containing impregnated porous carriers” (Rutgers, The State University of New Jersey, priority 2019, dated 2026).

Assay: Dissolution test, rotating paddle method, DI water (Example 2)
Format: physicochemical
Details: 900 ml DI water, 50 rpm, 37° C., FIG. 4
Description: Dissolution Behavior: As part of this study, dissolution tests were performed on both pure IBU and impregnated IBU to check the effect of the impregnation process on the dissolution rate and extent of IBU. Dissolution was carried out in 900 ml of DI water at 50 rpm and 37° C. using the rotating paddle method. Samples were withdrawn at predetermined time intervals (every 3 minutes) for 60 min using a peristaltic pump attached to the dissolution device. The amount of released IBU was quantified spectrophotometrically.

SMILES: CC(C)Cc1ccc(C(C)C(=O)O)cc1 (stereo not shown) [pure crystal IBU, Ibuprofen]
- IBU released within 5 minutes: less than 10%
